Our source for the EC50, IC50 and outcome values is PubChem BioAssay AID179 (DTP/NCI, 2004).

pEC50, pIC50: −log10 of the molar value. Where “and” joins values, the source holds several entries; their conditions need not be identical. Identical values can stand only once. Calls of active or inactive are those of the source.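 How the source made its calls: active means compounds giving half or more protection of infected cells from virus-caused growth loss, again on retest; inactive means the rest.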 Some results are limits rather than exact numbers.

In general, pEC50 refers to the negative decadic logarithm of the EC50, by convention in mol/L. As usually defined, the pIC50 is the IC50 on a negative log10 scale, so that one unit is a factor of ten. A low value points to a large IC50.

The test system of the test is CEM cells HIV-1 protection, formazan growth assay. Put plainly: NCI AIDS Antiviral Assay. The settings on record: for pIC50: measured here: growth of uninfected CEM cells. The method in brief: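 Soluble formazan readout of cell growth; CEM cells ± HIV-1; 5 drug concs. ≥50% protection → retest; ≥50% again = moderately active; reproducible 100% = confirmed active.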

Regarding `CCOC(=O)CCCSCCCC1(CCCSCCCC(=O)OCC)OCCO1`, the pEC50 is < 4.40 and the pIC50 is < 4.40.

Regarding `CN1C(=O)/C(=N/N(c2ccccc2)c2ccccc2)c2ccccc21`, the pEC50 is < 3.70 and the pIC50 is < 3.70.

Regarding `COC(=O)C12CCC(CC1=O)C2(C)C` (stereo not given), the pEC50 is < 3.60 and the pIC50 is < 3.60.

Consider `CCC[CH2][Sn]1([CH2]CCC)[O]C(=O)c2cc(I)cc(I)c2[O]1`, for which the outcome was inactive.

For `C=CCCCN1CCCC(C)C1=S` (stereo not given), the pEC50 was < 3.60 and the pIC50 is < 3.60.

Regarding `CCCCCCCCCCCCCCCCCCOCC(O)COP(=O)(O)OCC1OC(n2cc(C)c(=O)[nH]c2=O)CC1N=[N+]=[N-]` (stereo not given), the pEC50 is < 4.00 and the pIC50 is 4.50.

In the case of `Cc1cn(C2OCC(CO)C2O)c(=O)[nH]c1=O` (stereo not given), the pEC50 is < 3.70 and the pIC50 is < 3.70.

For the molecule `O=C(c1nc2ccc([N+](=O)[O-])cc2[nH]c1=O)C(O)c1ccc([N+](=O)[O-])cc1` (stereo not given), the pEC50 is 4.23 and the negative-log IC50 (pIC50) was 3.96.

With `CC(=O)Oc1c(C)cc(-c2cc(C)c(OC(C)=O)c(C)c2)cc1C`, the pEC50 is < 3.70 and the pIC50 was 4.26.

On to `CC(/C=C/C(O)=C1/C(=O)CNC1=O)=C\[C@@H](C)[C@H]1O[C@@]2(C)O[C@H](C(=O)[C@@H]3O[C@@]32C)[C@@H]1C`, for which the pEC50 is < 3.70 and the negative logarithm of the IC50 (pIC50) was 4.04.

With `C/C(O)=C(\C=NC(=S)c1ccncc1)C(=O)Nc1ccccc1C`, the pEC50 is < 3.70 and the pIC50 was < 3.70.

As for `O=c1[nH]c(Nc2ccc(Cl)cc2)nc2nc[nH]c12`, the pEC50 is < 4.00 and the negative logarithm of the IC50 (pIC50) was 4.05.

With `O=C1C(=O)c2ccccc2C(O)=C1CCCC1CCC2CCCCC2C1` (stereo not given), the pEC50 was < 3.70 and the pIC50 was 5.08.

With `CCN(C(=O)N[C@@H](C)C(=O)N[C@@H](Cc1ccccc1)C(=O)OC)c1ccccc1`, the outcome was inactive.

With `O=S(=O)(NCCSSCCNS(=O)(=O)c1ccc(Cl)cc1)c1ccc(Cl)cc1`, the pEC50 was < 3.70 and the pIC50 was 4.75.

For the molecule `O=C1NN(c2ccccc2)C(=O)C2C3c4ccccc4C(c4ccccc43)C12` (stereo not given), the pEC50 was < 3.70 and the pIC50 is < 3.70.

As to `CCOc1nnc(C)o1`, the pEC50 was < 2.82 and the pIC50 was < 2.82.

Turning to `O=C1CNS(=O)(=O)N1`, the pEC50 is < 2.74 and the negative logarithm of the IC50 (pIC50) is < 2.74.

For the molecule `COC(=O)[C@@H]1c2cc3c(c(O)c2[C@@H](OC2OC(C)C(OC)C(C)(OC)C2OC)C[C@]1(C)O)C(=O)c1c(O)cc2c(c1C3=O)O[C@H]1O[C@]2(C)[C@H](O)[C@@H](N(C)C)[C@@H]1O` (stereo not given in full), the result was inactive.

In the case of `COc1cc(/C=C/C(=O)CC(=O)/C=C/c2ccc(O)c(OC)c2)ccc1O`, the pEC50 was < 3.70; the negative logarithm of the IC50 (pIC50) is 4.72 and 4.12.

Take `O=C1/C(=C\c2ccc([N+](=O)[O-])cc2)Sc2scc(-c3ccc(O)c(O)c3)[n+]21`: the pEC50 was < 3.70 and the pIC50 is 5.28.

As to `O=C1N[C@H]2CCCC[C@@H]2C(=O)N1OS(=O)(=O)c1ccccc1`, the pEC50 is < 3.70 and the negative logarithm of the IC50 (pIC50) is < 3.70.

With `CC(CCCOC(c1ccccc1)(c1ccccc1)c1ccccc1)OC(=O)Nc1cc([N+](=O)[O-])cc([N+](=O)[O-])c1` (stereo not given), the pEC50 was < 4.89 and the negative logarithm of the IC50 (pIC50) is < 4.89.

For the molecule `CCCCN(CCCC)C(=NCc1ccccc1)NC#N`, the pEC50 is < 4.00 and the pIC50 was 4.76.

Regarding `O=C1c2ccccc2C(=C2c3ccccc3C(=O)c3ccccc32)c2ccccc21`, the outcome was inactive.

As to `CC1=NNC(=O)C1C1CC(c2c[nH]c3ccccc23)=NNC1=O` (stereo not given), the pEC50 is < 3.70 and the pIC50 is 3.81.

Regarding `O=S1(=O)CCN2OCC1C2c1cccc2ccccc12` (stereo not given), the outcome was inactive.

Consider `COC1=CC(=O)C=C(CO)C1=O`, for which the pEC50 was < 3.25 and the pIC50 was 5.00.

In the case of `CN1c2ccccc2C(=O)N2C(=O)CCC21C` (stereo not given), the pEC50 was < 3.70 and the negative logarithm of the IC50 (pIC50) is < 3.70.

On to `COc1ccc(-c2cc(=O)c3ccc(O)cc3o2)cc1OC`, for which the pEC50 is < 4.00 and the negative-log IC50 (pIC50) was 4.62.

As for `COc1cc(C(=O)Oc2ccc3c(c2)OCO3)cc(OC)c1OC`, the pEC50 was < 3.70 and the pIC50 is < 3.70.

As to `CC1=Nc2c(ccc3c2C(=O)c2ccccc2C3=O)NC(c2ccncc2)C1` (stereo not given), the pEC50 is < 5.13 and the pIC50 is < 5.13.

`CCOC(=O)C#CCCOC1CCCCO1` (stereo not given): the pEC50 was < 3.86 and the pIC50 is 3.95.

As to `COc1ccc(/C=C2\CCC(C)C3C2=NN(c2ccccc2)C3c2ccc(OC)c(OC)c2)cc1OC` (stereo not given), the pEC50 was < 3.70 and the pIC50 is 5.30.

As for `O=C1CSC(=O)N1`, the pEC50 is < 2.67 and the pIC50 is < 2.67.

`CSc1nc(Nc2ccccc2Cl)c2c(N)nn(C)c2n1`: the pEC50 is < 3.70 and the negative-log IC50 (pIC50) is < 3.70.

With `Cc1cc2ccccc2c[n+]1CC(=O)CC([O-])(C(F)(F)F)C(F)(F)F`, the pEC50 is < 3.70 and the pIC50 is 4.02.

Take `Cc1cccc(C)c1Nc1nc(C)c(C(=O)CC(=O)C(=O)Nc2c(C(C)C)cccc2C(C)C)s1`: the pEC50 was < 3.70 and the negative-log IC50 (pIC50) was < 3.70.

With `NC(=O)CCN(CCC(N)=O)CCC(N)=O`, the pEC50 was < 3.70 and the pIC50 is < 3.70.

For `CCOC(=O)c1ccc(N=C2Sc3nc4ccccc4n3C2=Nc2ccc(C(=O)OCC)cc2)cc1`, the pEC50 is < 4.30 and the pIC50 is < 4.30.

Take `COc1ccc(Oc2c(OC)cc(NCCCCCN3C(=O)c4ccccc4C3=O)c3ncccc23)cc1`: the pEC50 is < 4.00 and the pIC50 was < 4.00.

On to `CCn1cnc2[nH]cc(C#N)c2c1=O`, for which the pEC50 is < 3.70 and the pIC50 is < 3.70.

Take `CC1(C)OCC(COC(=O)NCn2cc(-c3ccccc3)nn2)O1` (stereo not given): the pEC50 is < 3.70 and the pIC50 was < 3.70.

Turning to `COC(=O)c1cc(Cl)ccc1NC(=O)C1CCCCC1`, the result was inactive.

Consider `CC(=O)NNc1nc(C)c(C(=O)NNC(=O)C(=O)Nc2c(Cl)cc([N+](=O)[O-])cc2Cl)s1`, for which the pEC50 was < 4.13 and the pIC50 is < 4.13.

Take `N#Cc1ccc([N+](=O)[O-])cc1NC(N)=S`: the pEC50 is < 3.65 and the pIC50 was < 3.65.

In the case of `O=[N+]([O-])c1cccc(C2N3CCCCC3[C@@H]3c4[nH]c5ccccc5c4CCN23)c1` (stereo not given in full), the pEC50 is < 4.73 and the pIC50 is < 4.73.

`N#CC(NNC(=O)c1ccccc1O)c1c(O)ccc2ccccc12` (stereo not given): the pEC50 was < 4.39 and the negative logarithm of the IC50 (pIC50) is 5.42.

For `Cc1ccc(S(=O)(=O)NCCSSCCNS(=O)(=O)c2ccc(C)cc2)cc1`, the pEC50 is < 3.70; the pIC50 is 4.71 and 4.57.

For `CC1(C)OC(CP(c2ccccc2)c2ccccc2)C(CP(c2ccccc2)c2ccccc2)O1` (stereo not given), the pEC50 was < 5.70 and the pIC50 is 6.64.

On to `CCOc1ccccc1NC(=O)C1=C(C)NC(C)=C(C(=O)Nc2ccccc2OCC)C1c1ccc(NC(C)=O)cc1`, for which the pEC50 is < 4.90 and the pIC50 was < 4.90.

For `CC1(C)COC2(c3ccccc3)N(c3ccccc3)C(=O)ON12` (stereo not given), the pEC50 was < 3.70 and the pIC50 was < 3.70.

On to `CC1CC[C@]2(C(=O)O)CCC3(COC(=O)/C=C\c4ccc(O)cc4)C(=CCC4[C@@]5(C)CC[C@H](O)C(C)(C)C5CC[C@]43C)[C@@H]2[C@H]1C` (stereo not given in full), for which the pEC50 was < 4.38 and the pIC50 is 4.96.

With `Cn1c(C(O)(Cc2ccccn2)Cc2ccccn2)cc2ccccc21`, the pEC50 was < 4.01 and the negative logarithm of the IC50 (pIC50) is 4.14.

As for `Nc1nc(Cl)cc(NCC2(CO)CCCC2)n1`, the pEC50 was < 3.70 and the pIC50 was 4.18.

For the molecule `O=C(CCCC(=O)N/N=C/c1ccc(O)c(O)c1)N/N=C\c1ccc(O)c(O)c1`, the pEC50 was < 3.70 and the pIC50 is 4.53.

Take `CCCCOCOc1ccccc1P1(=O)COc2ccccc2OC1`: the pEC50 was < 3.70 and the pIC50 is 4.35.

As for `CC1(C)OC[C@@H](C[C@H](O)COCc2ccccc2)O1`, the pEC50 is < 3.70 and the pIC50 was < 3.70.

For `COc1cc(N=Nc2cc(S(=O)(=O)O)c3cccnc3c2O)ccc1-c1ccc(N=Nc2cc(S(=O)(=O)O)c3cccnc3c2O)cc1OC`, the negative-log EC50 (pEC50) is 4.00 and the pIC50 was 3.74.

Regarding `COc1cc(N=Nc2c(O)c3ccccc3[nH]c2=O)c(OC)cc1N=Nc1ccccc1`, the pEC50 is < 4.00 and the negative-log IC50 (pIC50) was < 4.00.

On to `O=C(CN1CCOCC1)Nc1ccc2c(c1)C1Oc3ccccc3CC1CO2` (stereo not given), for which the outcome was inactive.

Consider `CC(C)OP(=O)(OC(C)C)/C(=N/Nc1ccccc1[N+](=O)[O-])NNC(=O)c1ccccc1`, for which the pEC50 was < 5.93 and the negative logarithm of the IC50 (pIC50) was < 5.93.

Consider `O=[As](O)(O)c1ccc(OCCO)cc1`, for which the negative logarithm of the EC50 (pEC50) is < 3.70 and the negative-log IC50 (pIC50) was < 3.70.

With `c1cc2nnsc2s1`, the pEC50 was < 3.60 and the negative-log IC50 (pIC50) is < 3.60.

For the molecule `COC(=O)C1CCC(=O)N1C(c1ccc(OC)cc1)c1cc(OC)c(OC)c(OC)c1` (stereo not given), the pEC50 is < 5.70 and the negative-log IC50 (pIC50) is 7.00.

For `OC1C(CBr)OC(OC[C@H](COCc2ccccc2)OCc2ccccc2)C(O)C1O` (stereo not given in full), the pEC50 was < 3.67 and the negative logarithm of the IC50 (pIC50) was < 4.00.

As for `N#CSC1=C(SC#N)C(=O)c2ccccc2C1=O`, the pEC50 was < 3.70 and the pIC50 is 4.91.

As for `COC(C/C(=C/CO[Si](C(C)C)(C(C)C)C(C)C)C(=O)N(COCC[Si](C)(C)C)c1ccccc1I)OC`, the pEC50 was < 3.70 and the pIC50 is 4.49.

With `O=C(c1ccccc1)[C@H]1Nc2ccc(Cl)cc2C2c3ccccc3CC21` (stereo not given in full), the pEC50 was < 4.84 and the negative-log IC50 (pIC50) is < 4.84.

Regarding `Cc1cc2c(cc1C)NC1=C(N2)OC(c2ccccc2C)C1=O` (stereo not given), the pEC50 is < 4.09 and the pIC50 was < 4.09.

In the case of `COC(=O)c1cc(C(=O)c2cc(C)c(OC)c(C(=O)OC)c2)cc(C)c1OC`, the pEC50 was < 3.70 and the negative-log IC50 (pIC50) was 4.18.
